Data on 16 compounds can be found in ChEMBL document CHEMBL4425137, “Selective 5-HT2C receptor agonists: Design and synthesis of pyridazine-fused azepines” (Bioorg Med Chem Lett, 2016).

Data set [1] concerns the target T1, 5-hydroxytryptamine receptor 2C (Homo sapiens, UniProt P28335).
T1 sequence (P28335 whole entry): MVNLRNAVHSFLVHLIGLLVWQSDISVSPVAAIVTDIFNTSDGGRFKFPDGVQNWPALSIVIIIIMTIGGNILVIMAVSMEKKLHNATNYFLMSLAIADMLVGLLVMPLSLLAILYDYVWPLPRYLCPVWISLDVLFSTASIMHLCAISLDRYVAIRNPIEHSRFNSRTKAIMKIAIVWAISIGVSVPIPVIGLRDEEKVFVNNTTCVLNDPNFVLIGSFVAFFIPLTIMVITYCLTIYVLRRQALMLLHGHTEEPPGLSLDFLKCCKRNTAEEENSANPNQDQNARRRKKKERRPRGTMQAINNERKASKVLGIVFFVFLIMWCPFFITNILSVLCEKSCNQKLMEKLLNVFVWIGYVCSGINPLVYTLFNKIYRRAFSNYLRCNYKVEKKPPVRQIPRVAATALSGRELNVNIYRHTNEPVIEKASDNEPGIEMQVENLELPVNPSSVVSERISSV
Description: Agonist activity at recombinant human 5-HT2C receptor transfected in CHOK1 cells assessed as calcium mobilization by FLIPR assay

The nature of data set [2]: in vitro. The note with it: human, liver microsomes. In general terms: Liver microsomes are a subcellular fraction often used to study metabolism.
Description: (§1) Intrinsic clearance in human liver microsomes
Data set [3] addresses T1, 5-hydroxytryptamine receptor 2C. As to the kind of experiment: biochemical.
Description: Displacement of [3H]-mesulergine from recombinant human 5-HT2C receptor transfected in Swiss mouse 3T3 cells after 150 mins by scintillation proximity assay
A short description of data set [4]: in vitro. The settings on record: dog, MDCK, permeability.
Description: Permeability in RRCK cells
The test system of a further data set is MDR1. Put plainly: in vitro. The note with it: dog, MDCK-MDR1, Ratio.
The target in a further data set is 5-HT2B receptor (Homo sapiens, UniProt P41595). Put plainly: in vitro.
Chain of 5-HT2B receptor (P41595 whole entry): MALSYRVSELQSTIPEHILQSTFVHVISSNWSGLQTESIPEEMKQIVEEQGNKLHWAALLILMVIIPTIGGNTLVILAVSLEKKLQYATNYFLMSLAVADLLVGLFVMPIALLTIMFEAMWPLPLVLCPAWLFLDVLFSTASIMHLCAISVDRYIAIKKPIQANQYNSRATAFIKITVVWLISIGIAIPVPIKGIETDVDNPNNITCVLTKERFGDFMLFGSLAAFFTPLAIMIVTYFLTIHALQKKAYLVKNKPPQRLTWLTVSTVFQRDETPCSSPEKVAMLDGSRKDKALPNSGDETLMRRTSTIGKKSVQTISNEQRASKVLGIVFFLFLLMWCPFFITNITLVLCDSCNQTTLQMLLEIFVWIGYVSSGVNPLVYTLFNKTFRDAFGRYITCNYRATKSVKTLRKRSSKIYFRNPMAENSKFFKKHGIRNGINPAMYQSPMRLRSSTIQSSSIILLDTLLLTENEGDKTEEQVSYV
Another data set in a line: physchem. The settings on record: octanol/water.
For data set [5], the target named is T2, 5-hydroxytryptamine receptor 2B (Homo sapiens, UniProt P41595). As to the kind of experiment: Agonist activity at recombinant human 5-HT2B receptor transfected in CHOK1 cells assessed as calcium mobilization by FLIPR assay. The class given is cell-based. For orientation: A change in cytosolic calcium serves as a functional read-out for many receptors and channels.
T2 sequence (P41595 whole entry): as above

The conditions of data set [6]: human, microsomes.
Description: as §1
For data set [7], the target named is T2, 5-hydroxytryptamine receptor 2B. The settings on record: 10 µM.
Description: (§2) Agonist activity at recombinant human 5-HT2B receptor transfected in CHOK1 cells assessed as calcium mobilization at 10 uM by FLIPR assay
For data set [8] the following is noted: dog, mdckii-le.
Description: Permeability in RRCK cells

Description for 5-HT2B receptor: as §2
Description for MDR1: Efflux ratio of permeability from basolateral to apical side over apical to basolateral side in MDCK cells expressing MDR1
Description for physchem: Lipophilicity, log D of the compound

The term EC50 denotes the concentration giving half of the maximal effect. A word on the microsomal CLint: it is the rate of metabolic loss divided by the concentration. A higher microsomal CLint goes with rapid turnover. The term Ki denotes the dissociation constant of the complex between target and ligand, obtained from inhibition or displacement. A higher Ki goes with weaker binding. Usually Papp stands for the rate of passage across a membrane or cell layer, normalised by area and donor concentration. By efflux ratio is commonly meant the permeability from basolateral to apical divided by that in the opposite direction, in the common usage. What is called Emax is the size of the effect at its maximum, as opposed to the concentration needed. Usually logD stands for the decadic logarithm of the distribution of all forms, ionised or not, between an organic phase and buffer at a given pH. Low values mean a more hydrophilic compound, high ones a more lipophilic compound. For the compound `FC(F)(F)c1cccc(Cc2cc3c(nn2)CCNCC3)c1`, the figures for the EC50 in [1] and in data set [5] were 750 nM and 450 nM, respectively. Also, the microsomal CLint in “in vitro [2]” was less than 7 µL/min/mg. The Ki in data set [3] turned out to be 250 nM. This compound also registered a Papp in the data set “in vitro [4]” of 13 ×10⁻⁶ cm/s. Moreover, the efflux ratio in the data set with MDR1 amounted to 1.7. The compound further yielded an Emax at 10 µM on 5-HT2B receptor of 57%. This compound also came in with a logD in the data set “physchem” of 0.9.
In the case of `CC(c1ccccc1)c1cc2c(nn1)CCNCC2` (stereo in doubt; 15g), in data set [1], the EC50 was 190 nM. In the data set “in vitro [2]”, this compound came in with an intrinsic clearance (microsomal CLint) of less than 8 µL/min/mg. The compound further yielded an inhibitory constant (Ki) in data set [3] of 200 nM. The apparent permeability (Papp) in “in vitro [4]” worked out at 13 ×10⁻⁶ cm/s. Also, the efflux ratio with MDR1 turned out to be 1.8. Besides, on 5-HT2B receptor, the Emax at 10 µM amounted to 36%. Also, the logD in “physchem” turned out to be 0.4.
Regarding `c1ccc(Cc2nnc3n2CCNCC3)cc1`, the EC50 in data set [1] was greater than 10000 nM. In data set [3], this compound registered a Ki greater than 10000 nM. In addition, the apparent permeability (Papp) in “in vitro [4]” stood at 2 ×10⁻⁶ cm/s. Moreover, the efflux ratio with MDR1 is 1.3. Besides, the Emax at 10 µM at 5-HT2B receptor was 0%. The same compound had a CLH in [6] of less than 8000 µL/min/mg. This compound also returned a logD in the data set “physchem” of -0.3.
In turn, `Cc1c(Cc2ccccc2)nnc2c1CCNCC2` showed an EC50 in data set [1] of 220 nM. The compound further gave a microsomal CLint in “in vitro [2]” of less than 8 µL/min/mg. The affinity in data set [3] corresponds to a Ki of 520 nM. Also, in “in vitro [4]”, the Papp was 14 ×10⁻⁶ cm/s. Further, in the data set on MDR1, the efflux ratio worked out at 1.9.
Regarding `COc1ccccc1Cc1cc2c(nn1)CCNCC2`, in data set [1], the half-maximal effective concentration (EC50) was greater than 10000 nM. Further, the intrinsic clearance (microsomal CLint) in “in vitro [2]” was 9 µL/min/mg. Moreover, the Ki in [3] came out at 550 nM. Besides, the Papp in the data set “in vitro [4]” is 16 ×10⁻⁶ cm/s. Further, the efflux ratio in the data set with MDR1 amounted to 1.9. The maximal response (Emax) at 10 µM on 5-HT2B receptor came to 40%. In the data set “physchem”, this compound came in with a log distribution coefficient (logD) of 0.1.
`O=c1[nH]n(Cc2ccccc2)c2c1CCNCC2` had an EC50 in data set [1] greater than 10000 nM. The compound further displayed a Papp in “in vitro [4]” of less than 1 ×10⁻⁶ cm/s. For the same compound, the efflux ratio in the data set on MDR1 was found to be 1.2. Besides, the Emax at 10 µM at 5-HT2B receptor was 0%. The compound further displayed a CLH in data set [6] of less than 7000 µL/min/mg. Further, in “physchem”, the pH-dependent lipophilicity (logD) is -0.1.
In data set [3], `c1ccc(Cn2cc3c(n2)CCNCC3)cc1` displayed a Ki of 2700 nM. The same compound yielded a Papp in “in vitro [4]” of 13 ×10⁻⁶ cm/s. The efflux ratio in the data set with MDR1 was found to be 1. This compound yielded an Emax at 10 µM on 5-HT2B receptor of 3%. The CLH in data set [6] was less than 7000 µL/min/mg. The compound also returned a pH-dependent lipophilicity (logD) in “physchem” of 0.1.
In turn, `O=c1cc2c(nn1Cc1ccccc1)CCNCC2` displayed a concentration giving a half-maximal response (EC50) in data set [1] of 30 nM. Moreover, the inhibition constant Ki in data set [3] came out at 10 nM. The Papp in the data set “in vitro [4]” was determined as 13 ×10⁻⁶ cm/s. Also, the efflux ratio with MDR1 amounted to 1. In addition, the Emax at 10 µM on 5-HT2B receptor was found to be 48%. Besides, in data set [6], the CLH is less than 7000 µL/min/mg. For the same compound, the logD in the data set “physchem” turned out to be 0.3.
In the case of `CC(c1ccccc1)c1cc2c(nn1)CCNCC2` (stereo in doubt; 15h), in data set [1], the EC50 was found to be 110 nM. Further, in data set [7], the Emax is 55%. The same compound returned a Ki in [3] of 170 nM. Further, the permeability in data set [8] came to 14 ×10⁻⁶ cm/s.
As for `Clc1ccc(Cc2cc3c(nn2)CCNCC3)cc1`, the figures for the EC50 in data set [1] and in data set [5] were 310 nM and 410 nM, respectively. The compound also had a microsomal CLint in the data set “in vitro [2]” of less than 7 µL/min/mg. Also, the Ki in [3] came out at 120 nM. Moreover, in “in vitro [4]”, the Papp was 13 ×10⁻⁶ cm/s. For the same compound, the efflux ratio with MDR1 came out at 1.3. The compound also registered a maximal response (Emax) at 10 µM at 5-HT2B receptor of 63%. Besides, the logD in “physchem” is 0.8.
Regarding `O=c1c2c([nH]n1Cc1ccccc1)CCNCC2`, the EC50 in data set [1] was greater than 10000 nM. Besides, the Papp in “in vitro [4]” was less than 1 ×10⁻⁶ cm/s. Further, on 5-HT2B receptor, the Emax at 10 µM was 0%. The same compound displayed a logD in “physchem” of -0.5.
As for `O=c1[nH]c2c(nc1Cc1ccccc1)CCNCC2`, in data set [1], the EC50 stood at 70 nM. The compound further returned a Ki in data set [3] of 110 nM. In addition, the efflux ratio with MDR1 was found to be 3. Besides, the Emax at 10 µM on 5-HT2B receptor was determined as 24%. In addition, in data set [6], the CLH is less than 8000 µL/min/mg. For the same compound, the logD in the data set “physchem” was -0.1.
With `Clc1ccccc1Cc1cc2c(nn1)CCNCC2`, the EC50 in [1] was 310 nM; in data set [5], 800 nM. The microsomal CLint in “in vitro [2]” was less than 7 µL/min/mg. In data set [3], this compound came in with a Ki of 200 nM. This compound came in with a Papp in the data set “in vitro [4]” of 15 ×10⁻⁶ cm/s. Moreover, in the data set with MDR1, the efflux ratio amounted to 1.1. The Emax at 10 µM on 5-HT2B receptor turned out to be 41%. The logD in “physchem” was 0.7.
`c1ccc(Cc2cc3c(nn2)CCNCC3)cc1`: the EC50 in data set [1] turned out to be 130 nM. In the data set “in vitro [2]”, this compound registered a microsomal CLint of less than 7 µL/min/mg. This compound had an inhibitory constant (Ki) in [3] of 80 nM. Besides, the Papp in the data set “in vitro [4]” is 14 ×10⁻⁶ cm/s. Moreover, in the data set on MDR1, the efflux ratio was 1. The same compound yielded an Emax at 10 µM at 5-HT2B receptor of 29%. Moreover, the pH-dependent lipophilicity (logD) in “physchem” was found to be 0.
Compound `c1ccc(Cc2ncc3c(n2)CCNCC3)cc1` registered a CLH in data set [6] of less than 8000 µL/min/mg.
As to `Fc1ccc(Cc2cc3c(nn2)CCNCC3)cc1`, the EC50 in data set [1] is greater than 10000 nM. In “in vitro [2]”, the microsomal CLint is less than 7 µL/min/mg. Also, the Ki in [3] worked out at 450 nM. The same compound gave a Papp in the data set “in vitro [4]” of 14 ×10⁻⁶ cm/s. In the data set with MDR1, the efflux ratio is 1.2. In addition, the Emax at 10 µM at 5-HT2B receptor stood at 64%. In the data set “physchem”, this compound gave a logD of 0.2.
